Drawing on US10682340B2, “Depot formulations” (DURECT CORPORATION, priority 2016, dated 2020), this text covers solubility for one compound.

Molecules are shown by their SMILES. Converted amounts (≈) assume the structure as drawn. Like-named read-outs stand apart in the source and are kept apart here.

The series is described as follows: Solubility of sirolimus in aqueous media, solvents and benzyl benzoate/ethanol mixtures. The class given is physicochemical.

For the compound `CO[C@H]1C[C@@H]2CC[C@@H](C)[C@@](O)(O2)C(=O)C(=O)N2CCCC[C@H]2C(=O)O[C@H]([C@H](C)C[C@@H]2CC[C@@H](O)[C@H](OC)C2)CC(=O)[C@H](C)/C=C(\C)[C@@H](O)[C@@H](OC)C(=O)[C@H](C)C[C@H](C)/C=C/C=C/C=C/1C` [Sirolimus, sirolimus], the solubility was 0.23 mg/mL (≈ 0.252 mM) (PBS with 0.1% SDS, aqueous with cosolvent or surfactant or cyclodextrin, PBS, 0.1% SDS, pH 7.4, ambient temperature, read-out: Solubility); “Not detected” (PBS, pH 7.4, ambient temperature); 163 mg/mL (benzyl benzoate/ethanol mixture, organic solvent or mixture, BB/EtOH Ratio 7, room temperature, read-out: Solubility in Benzyl Benzoate/Ethanol); 125 mg/mL (benzyl benzoate/ethanol mixture, organic solvent or mixture, BB/EtOH Ratio 9, room temperature, read-out: Solubility in Benzyl Benzoate/Ethanol); 90.1 mg/mL (benzyl benzoate/ethanol mixture, organic solvent or mixture, BB/EtOH Ratio 16, room temperature, read-out: Solubility in Benzyl Benzoate/Ethanol); 85.6 mg/mL (benzyl benzoate/ethanol mixture, organic solvent or mixture, BB/EtOH Ratio 18, room temperature, read-out: Solubility in Benzyl Benzoate/Ethanol). The solubility reads like this: (oil or lipid, Castor oil, ambient temperature, read-out: Solubility) 3 mg/mL (≈ 3.28 mM); (organic solvent or mixture, Benzyl alcohol (BA), ambient temperature, read-out: Solubility) at least 387 mg/mL; (organic solvent or mixture, Benzyl benzoate (BB), ambient temperature, read-out: Solubility) 37 mg/mL (≈ 40.5 mM); (organic solvent or mixture, Dimethyl sulfoxide (DMSO), ambient temperature, read-out: Solubility) at least 243 mg/mL; (organic solvent or mixture, Ethanol (EtOH), ambient temperature, read-out: Solubility) 48.5 mg/mL (≈ 53.1 mM); (organic solvent or mixture, N methyl-2 Pyrrolidone (NMP), ambient temperature, read-out: Solubility) at least 284 mg/mL. Also, the solubility (organic solvent or mixture, PEG 400, ambient temperature, read-out: Solubility) is 10.7 mg/mL (≈ 11.7 mM) and the solubility (organic solvent or mixture, Propylene glycol, ambient temperature, read-out: Solubility) is 11.8 mg/mL (≈ 12.9 mM).
